{"source": "patent US20120156771A1", "about": "“FUNCTIONAL DISRUPTION OF AN IMMUNOGLOBULIN GENE IN AN AVIAN EMBRYONIC STEM CELL” (Origen Therapeutics, Inc., priority 2002, published 2012)", "system": "chicken embryonic stem cells", "experiment": "Titration kill curve: morphology of cES cells under puromycin or neomycin selection", "assay_type": "cell-based", "design": "key to Morphology of cES cells: ES: ES cells are present.; diff: ES cells are differentiated.; gone: no morphologically recognizable cells are present", "procedure": "In a preferred embodiment, the concentration of puromycin required for selecting transfected cells is calculated as a titration kill curve. Titration kill curves for chicken embryonic stem cells are established by exposing cells in culture to puromycin concentrations varying from 0.0 to 1.0 μg/ml for 10 days (Table 7) and neomycin concentrations varying from 0.0 to 200 μg/ml (Table 8). The medium is changed every 2 days and fresh puromycin or neomycin is added. […] Puromycin concentrations of 0.3-1.0 μg/ml are used for selection of the transfected cultures. Neomycin concentrations over 40 μg/ml eliminated all cES cells within 7 days (Table 8).", "data": [{"substance": "neomycin", "values": [{"measurement": "Morphology of cES cells", "setting": "neomycin 10 μg/ml, day 1 under selection", "value": "ES"}, {"measurement": "Morphology of cES cells", "setting": "neomycin 10 μg/ml, day 2 under selection", "value": "ES"}, {"measurement": "Morphology of cES cells", "setting": "neomycin 10 μg/ml, day 3 under selection", "value": "ES"}, {"measurement": "Morphology of cES cells", "setting": "neomycin 10 μg/ml, day 4 under selection", "value": "ES"}, {"measurement": "Morphology of cES cells", "setting": "neomycin 10 μg/ml, day 5 under selection", "value": "ES"}, {"measurement": "Morphology of cES cells", "setting": "neomycin 10 μg/ml, day 6 under selection", "value": "ES"}, {"measurement": "Morphology of cES cells", "setting": "neomycin 10 μg/ml, day 7 under selection", "value": "ES"}, {"measurement": "Morphology of cES cells", "setting": "neomycin 10 μg/ml, day 8 under selection", "value": "ES"}, {"measurement": "Morphology of cES cells", "setting": "neomycin 10 μg/ml, day 9 under selection", "value": "ES"}, {"measurement": "Morphology of cES cells", "setting": "neomycin 10 μg/ml, day 10 under selection", "value": "ES"}, {"measurement": "Morphology of cES cells", "setting": "neomycin 20 μg/ml, day 1 under selection", "value": "ES"}, {"measurement": "Morphology of cES cells", "setting": "neomycin 20 μg/ml, day 2 under selection", "value": "ES"}, {"measurement": "Morphology of cES cells", "setting": "neomycin 20 μg/ml, day 3 under selection", "value": "ES"}, {"measurement": "Morphology of cES cells", "setting": "neomycin 20 μg/ml, day 4 under selection", "value": "ES"}, {"measurement": "Morphology of cES cells", "setting": "neomycin 20 μg/ml, day 5 under selection", "value": "ES"}, {"measurement": "Morphology of cES cells", "setting": "neomycin 20 μg/ml, day 6 under selection", "value": "ES"}, {"measurement": "Morphology of cES cells", "setting": "neomycin 20 μg/ml, day 7 under selection", "value": "ES"}, {"measurement": "Morphology of cES cells", "setting": "neomycin 20 μg/ml, day 8 under selection", "value": "ES"}, {"measurement": "Morphology of cES cells", "setting": "neomycin 20 μg/ml, day 9 under selection", "value": "ES"}, {"measurement": "Morphology of cES cells", "setting": "neomycin 20 μg/ml, day 10 under selection", "value": "ES"}, {"measurement": "Morphology of cES cells", "setting": "neomycin 30 μg/ml, day 1 under selection", "value": "ES"}, {"measurement": "Morphology of cES cells", "setting": "neomycin 30 μg/ml, day 2 under selection", "value": "ES"}, {"measurement": "Morphology of cES cells", "setting": "neomycin 30 μg/ml, day 3 under selection", "value": "ES"}, {"measurement": "Morphology of cES cells", "setting": "neomycin 30 μg/ml, day 4 under selection", "value": "ES"}, {"measurement": "Morphology of cES cells", "setting": "neomycin 30 μg/ml, day 5 under selection", "value": "ES"}, {"measurement": "Morphology of cES cells", "setting": "neomycin 30 μg/ml, day 6 under selection", "value": "ES"}, {"measurement": "Morphology of cES cells", "setting": "neomycin 30 μg/ml, day 7 under selection", "value": "ES/Diff"}, {"measurement": "Morphology of cES cells", "setting": "neomycin 30 μg/ml, day 8 under selection", "value": "ES/diff"}, {"measurement": "Morphology of cES cells", "setting": "neomycin 30 μg/ml, day 9 under selection", "value": "Diff"}, {"measurement": "Morphology of cES cells", "setting": "neomycin 40 μg/ml, day 1 under selection", "value": "ES"}, {"measurement": "Morphology of cES cells", "setting": "neomycin 40 μg/ml, day 2 under selection", "value": "ES"}, {"measurement": "Morphology of cES cells", "setting": "neomycin 40 μg/ml, day 3 under selection", "value": "ES"}, {"measurement": "Morphology of cES cells", "setting": "neomycin 40 μg/ml, day 4 under selection", "value": "ES"}, {"measurement": "Morphology of cES cells", "setting": "neomycin 40 μg/ml, day 5 under selection", "value": "ES/Diff"}, {"measurement": "Morphology of cES cells", "setting": "neomycin 40 μg/ml, day 7 under selection", "value": "dead"}, {"measurement": "Morphology of cES cells", "setting": "neomycin 40 μg/ml, day 8 under selection", "value": "gone"}, {"measurement": "Morphology of cES cells", "setting": "neomycin 40 μg/ml, day 9 under selection", "value": "gone"}, {"measurement": "Morphology of cES cells", "setting": "neomycin 40 μg/ml, day 10 under selection", "value": "gone"}, {"measurement": "Morphology of cES cells", "setting": "neomycin 50 μg/ml, day 1 under selection", "value": "ES"}, {"measurement": "Morphology of cES cells", "setting": "neomycin 50 μg/ml, day 2 under selection", "value": "ES"}, {"measurement": "Morphology of cES cells", "setting": "neomycin 50 μg/ml, day 3 under selection", "value": "ES"}, {"measurement": "Morphology of cES cells", "setting": "neomycin 50 μg/ml, day 4 under selection", "value": "ES/Diff"}, {"measurement": "Morphology of cES cells", "setting": "neomycin 50 μg/ml, day 5 under selection", "value": "ES/Diff"}, {"measurement": "Morphology of cES cells", "setting": "neomycin 50 μg/ml, day 8 under selection", "value": "gone"}, {"measurement": "Morphology of cES cells", "setting": "neomycin 50 μg/ml, day 9 under selection", "value": "gone"}, {"measurement": "Morphology of cES cells", "setting": "neomycin 50 μg/ml, day 10 under selection", "value": "gone"}, {"measurement": "Morphology of cES cells", "setting": "neomycin 60 μg/ml, day 1 under selection", "value": "ES"}, {"measurement": "Morphology of cES cells", "setting": "neomycin 60 μg/ml, day 2 under selection", "value": "ES"}, {"measurement": "Morphology of cES cells", "setting": "neomycin 60 μg/ml, day 3 under selection", "value": "ES"}, {"measurement": "Morphology of cES cells", "setting": "neomycin 60 μg/ml, day 4 under selection", "value": "gone"}, {"measurement": "Morphology of cES cells", "setting": "neomycin 60 μg/ml, day 5 under selection", "value": "Gone"}, {"measurement": "Morphology of cES cells", "setting": "neomycin 60 μg/ml, day 6 under selection", "value": "gone"}, {"measurement": "Morphology of cES cells", "setting": "neomycin 60 μg/ml, day 7 under selection", "value": "gone"}, {"measurement": "Morphology of cES cells", "setting": "neomycin 60 μg/ml, day 8 under selection", "value": "gone"}, {"measurement": "Morphology of cES cells", "setting": "neomycin 60 μg/ml, day 9 under selection", "value": "gone"}, {"measurement": "Morphology of cES cells", "setting": "neomycin 60 μg/ml, day 10 under selection", "value": "gone"}, {"measurement": "Morphology of cES cells", "setting": "neomycin 100 μg/ml, day 1 under selection", "value": "ES/Diff"}, {"measurement": "Morphology of cES cells", "setting": "neomycin 100 μg/ml, day 2 under selection", "value": "Diff"}, {"measurement": "Morphology of cES cells", "setting": "neomycin 100 μg/ml, day 3 under selection", "value": "dead"}, {"measurement": "Morphology of cES cells", "setting": "neomycin 100 μg/ml, day 4 under selection", "value": "gone"}, {"measurement": "Morphology of cES cells", "setting": "neomycin 100 μg/ml, day 5 under selection", "value": "Gone"}, {"measurement": "Morphology of cES cells", "setting": "neomycin 100 μg/ml, day 6 under selection", "value": "gone"}, {"measurement": "Morphology of cES cells", "setting": "neomycin 100 μg/ml, day 7 under selection", "value": "gone"}, {"measurement": "Morphology of cES cells", "setting": "neomycin 100 μg/ml, day 8 under selection", "value": "gone"}, {"measurement": "Morphology of cES cells", "setting": "neomycin 100 μg/ml, day 9 under selection", "value": "gone"}, {"measurement": "Morphology of cES cells", "setting": "neomycin 100 μg/ml, day 10 under selection", "value": "gone"}, {"measurement": "Morphology of cES cells", "setting": "neomycin 150 μg/ml, day 2 under selection", "value": "dead"}, {"measurement": "Morphology of cES cells", "setting": "neomycin 150 μg/ml, day 3 under selection", "value": "dead"}, {"measurement": "Morphology of cES cells", "setting": "neomycin 150 μg/ml, day 4 under selection", "value": "gone"}, {"measurement": "Morphology of cES cells", "setting": "neomycin 150 μg/ml, day 5 under selection", "value": "Gone"}, {"measurement": "Morphology of cES cells", "setting": "neomycin 150 μg/ml, day 6 under selection", "value": "gone"}, {"measurement": "Morphology of cES cells", "setting": "neomycin 150 μg/ml, day 7 under selection", "value": "gone"}, {"measurement": "Morphology of cES cells", "setting": "neomycin 150 μg/ml, day 8 under selection", "value": "gone"}, {"measurement": "Morphology of cES cells", "setting": "neomycin 150 μg/ml, day 9 under selection", "value": "gone"}, {"measurement": "Morphology of cES cells", "setting": "neomycin 150 μg/ml, day 10 under selection", "value": "gone"}, {"measurement": "Morphology of cES cells", "setting": "neomycin 200 μg/ml, day 2 under selection", "value": "dead"}, {"measurement": "Morphology of cES cells", "setting": "neomycin 200 μg/ml, day 3 under selection", "value": "gone"}, {"measurement": "Morphology of cES cells", "setting": "neomycin 200 μg/ml, day 4 under selection", "value": "gone"}, {"measurement": "Morphology of cES cells", "setting": "neomycin 200 μg/ml, day 5 under selection", "value": "Gone"}, {"measurement": "Morphology of cES cells", "setting": "neomycin 200 μg/ml, day 6 under selection", "value": "gone"}, {"measurement": "Morphology of cES cells", "setting": "neomycin 200 μg/ml, day 7 under selection", "value": "gone"}, {"measurement": "Morphology of cES cells", "setting": "neomycin 200 μg/ml, day 8 under selection", "value": "gone"}, {"measurement": "Morphology of cES cells", "setting": "neomycin 200 μg/ml, day 9 under selection", "value": "gone"}, {"measurement": "Morphology of cES cells", "setting": "neomycin 200 μg/ml, day 10 under selection", "value": "gone"}, {"measurement": "Neomycin concentrations that eliminated all cES cells", "setting": "within 7 days", "value": "over 40 μg/ml"}]}]}
